Measurements taken from patent US9085602B1, “Facial amphiphiles and methods of use” (The Scripps Research Institute, priority 2008, dated 2015).
Values joined by “and” are separate entries in the source; they are usually repeats but may differ in a detail not shown here. Equal entries are not always repeated. Where two headings read alike, the source gives them in different places.

What was measured:
[1] = Critical micelle concentration (CMC) by ANS fluorescence dye binding; format: physicochemical; settings: in water at 25° C.
Method: See De Vendittis et al., Anal. Biochem. 1981, 115, 278-86. The molecule ANS has a weak fluorescence in detergent concentrations below CMC, but becomes highly fluorescent when incorporated into the hydrophobic micellar environment. […] The emission fluorescence intensities at 465 nm were recorded (λex=405 nm) on a DXT880 multiplate spectrofluorimeter (Beckman Coulter). The CMC is defined as the breakpoint in the fluorescence (FIG. 4).
See also De Vendittis et al., Anal. Biochem. 1981, 115, 278-86.

bacteriorhodopsin (BR) = target: T1, bacteriorhodopsin (BR) (Halobacterium salinarum, UniProt P02945); assay: Stabilization of bacteriorhodopsin followed by UV-Vis absorption; set-up: species or system Halobacterium halobium; settings: for stability of BR stored in the detergent: pH 5.6, RT, A1 for more than 5 months
T1 construct: BR was isolated from purple membrane of Halobacterium halobium (strain S9); endogenous in cells; host or cells: Halobacterium halobium strain S9, purple membrane
T1 sequence (P02945 14-262): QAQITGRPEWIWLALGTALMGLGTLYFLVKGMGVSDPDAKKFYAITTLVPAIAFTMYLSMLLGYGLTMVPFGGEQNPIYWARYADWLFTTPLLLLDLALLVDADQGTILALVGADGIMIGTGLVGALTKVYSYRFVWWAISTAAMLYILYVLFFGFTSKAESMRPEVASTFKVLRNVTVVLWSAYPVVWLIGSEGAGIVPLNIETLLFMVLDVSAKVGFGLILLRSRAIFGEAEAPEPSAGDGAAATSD
Description: BR has a characteristic adsorption at visible wavelength (λmax: ˜550 nm in detergents) due to the bound retinal ligand in the interior of the transmembrane region, serving as an excellent system for the testing of designed amphiphiles.
BR was isolated from purple membrane of Halobacterium halobium (strain S9) and purified in 1.2% β-octyl-glycoside (OG) as reported in literature (Landau, E. M.; Rosenbusch, J. P. Proc. Natl. Acad. Sci. USA 1996, 93, 14532-5). […] After several dilution-concentration cycles, the final OG concentration was <1% of its CMC (0.53%). […] The UV-Vis absorption spectra of BR samples were recorded on a DXT880 multiplate spectrofluorimeter (Beckman Coulter).

[2] = Hydrodynamic radius of detergent micelles (DynaPro/Titan instrument); format: physicochemical; settings: measured at a concentration of 0.03% in water
MsbA [3] = target: T2, MsbA (Salmonella typhimurium, UniProt P63359); assay: Small-angle x-ray scattering of MsbA in detergent; settings: separation of PDC signal from empty micelles
T2 sequence (P63359 whole entry): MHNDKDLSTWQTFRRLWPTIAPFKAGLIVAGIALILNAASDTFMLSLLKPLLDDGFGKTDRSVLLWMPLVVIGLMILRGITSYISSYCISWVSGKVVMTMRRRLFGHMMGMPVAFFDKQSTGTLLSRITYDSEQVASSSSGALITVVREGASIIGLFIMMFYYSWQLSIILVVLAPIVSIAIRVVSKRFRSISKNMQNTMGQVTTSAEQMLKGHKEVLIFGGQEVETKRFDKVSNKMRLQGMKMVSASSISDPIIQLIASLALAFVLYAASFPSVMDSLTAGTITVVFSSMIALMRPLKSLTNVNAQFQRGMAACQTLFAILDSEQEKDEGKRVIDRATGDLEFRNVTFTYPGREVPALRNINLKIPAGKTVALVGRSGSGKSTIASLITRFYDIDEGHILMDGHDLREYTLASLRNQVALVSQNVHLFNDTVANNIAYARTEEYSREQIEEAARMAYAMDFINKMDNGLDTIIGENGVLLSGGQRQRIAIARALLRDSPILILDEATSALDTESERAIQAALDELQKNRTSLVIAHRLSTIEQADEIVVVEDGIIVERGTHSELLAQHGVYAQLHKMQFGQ
Description: The facial amphiphiles self-assemble to smaller micelles and form smaller protein-detergent complexes (PDCs) than the conventional detergents. Because of these unique properties, facial amphiphiles can be used for SAX (small-angle x-ray scattering) studies of integral membrane proteins. A major challenge for applying SAXS to membrane protein structural analysis is the need to separate the scattering signal of the PDC from that of the empty micelles. With conventional head-to-tail detergents, it is difficult to achieve this goal because of the presence of the large detergent micelles and the characteristic second peak in the scattering intensity. Remarkably, the facial amphiphiles described herein allow one to separate the scattering signal of the PDC from that of the empty micelles.

cytochrome c oxidase ba3 = target: T3, cytochrome c oxidase ba3 (Thermus thermophilus, UniProt P82543+Q5SJ79+Q5SJ80); assay: Crystallization of cytochrome c oxidase ba3 by detergent exchange from β-DDM; settings: pure detergent
T3 sequence (Q5SJ79 1-562): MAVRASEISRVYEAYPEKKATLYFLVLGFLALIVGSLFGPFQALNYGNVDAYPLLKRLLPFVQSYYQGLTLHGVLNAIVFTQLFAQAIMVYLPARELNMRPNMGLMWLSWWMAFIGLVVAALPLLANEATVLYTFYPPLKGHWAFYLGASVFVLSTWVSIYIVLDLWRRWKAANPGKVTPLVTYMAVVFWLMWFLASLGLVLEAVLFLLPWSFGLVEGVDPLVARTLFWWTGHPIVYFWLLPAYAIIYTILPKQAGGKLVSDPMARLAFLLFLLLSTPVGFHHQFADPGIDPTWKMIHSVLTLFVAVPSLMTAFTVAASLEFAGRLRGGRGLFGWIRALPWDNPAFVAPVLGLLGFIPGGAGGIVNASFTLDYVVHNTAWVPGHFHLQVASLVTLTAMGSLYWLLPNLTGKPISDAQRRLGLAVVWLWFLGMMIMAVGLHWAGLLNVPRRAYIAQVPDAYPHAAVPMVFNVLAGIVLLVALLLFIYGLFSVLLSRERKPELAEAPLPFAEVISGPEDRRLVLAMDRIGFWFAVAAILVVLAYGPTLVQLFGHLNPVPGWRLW
T3 sequence (Q5SJ80 1-168): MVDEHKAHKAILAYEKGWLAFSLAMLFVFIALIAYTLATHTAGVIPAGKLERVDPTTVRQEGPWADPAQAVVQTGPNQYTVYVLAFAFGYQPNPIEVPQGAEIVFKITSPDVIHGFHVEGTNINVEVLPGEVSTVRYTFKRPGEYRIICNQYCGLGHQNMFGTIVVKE
T3 sequence (P82543 1-34): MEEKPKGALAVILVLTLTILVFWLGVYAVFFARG
Method: The facial amphiphiles were evaluated in the crystallization of cytochrome c oxidase ba3 by detergent exchange from β-DDM. Several new crystal forms were obtained depending on which detergent was used, albeit in less than optimal diffraction quality (>6 Å). […] Crystals of human connexin 26 have also been obtained using the purely facial amphiphiles described herein.

[4] = known detergents, comparison values; cited from earlier work
MsbA [5] = target: T2, MsbA; assay: Detergent binding measurement using glycosidic colorimetric assay; set-up: made in house; species or system S. typhimurium; settings: MsbA fractions from chromatography
[6] = target: T4, MsbA from S. typhimurium (ST-MsbA) (Salmonella typhimurium, UniProt P63359); assay: Linked enzyme ATPase assay of detergent-solubilized MsbA (activity and stability); format: biochemical
T4 construct: made in house
T4 sequence (P63359 whole entry): as the sequence (P63359 whole entry) above
Method: The purified protein in the candidate detergent was assayed for activity by a standard linked enzyme ATPase assay to probe the protein stability.
MsbA was prepared from S. typhimurium as described previously (Reyes, C. L.; Chang, G. Acta Crystallograph Sect. F Struct. Biol. Cryst. Commun. 2005, 61, 655-8). […] The supernatant after centrifugation at 200,000 g for 45 min was subjected to Ni-affinity column for purification. The protein extraction and purity was evaluated by SDS-PAGE. MsbA was further purified by anion-exchange chromatography and desalting column for the stability evaluation which was followed by ATPase activity measurement.
ATPase activity was measured using an ATP-regenerating system described by Vogel and Steinhart (Biochemistry 1976, 15, 208-16), and modified by Urbatsch et al. (J. Biol. Chem. 1995, 270, 19383-90). Briefly, 1-2 μg of detergent solubilized MsbA was added to 100 μL of Linked Enzyme (LE) buffer at 37° C. containing 10 mM ATP, 12 mM MgCl2, 6 mM phosphoenolpyruvate (PEP), 1 mM NADH, 10 units of lactate dehydrogenase (LDH), 10 units of pyruvate kinase (PK), and 50 mM Tris-HCl (pH 7.5). ATP hydrolysis was measured as the decrease in absorbance of NADH at 340 nm using a DXT880 multiplate spectrofluorimeter (Beckman-Coulter). ATPase activity was calculated using the following equation: […], where ΔOD is the change in optical density and […].

Compound: CCC[C@@H](C)[C@H]1CC[C@H]2[C@@H]3[C@H](O[C@@H]4OC(CO)[C@@H](O[C@H]5OC(CO)[C@@H](O)[C@H](O)C5O)[C@H](O)C4O)C[C@@H]4CCCC[C@]4(C)[C@H]3C[C@H](O[C@@H]3OC(CO)[C@@H](O[C@H]4OC(CO)[C@@H](O)[C@H](O)C4O)[C@H](O)C3O)[C@]12C (stereo partly drawn) [Compound A1, 7α,12α-Di-(O-β-D-maltosyl)-cholane]
- CMC [1]: 0.1 mM
- CMC ([1]; ANS fluorescence assay): 0.01%
- melting point: 188 to 190 °C
- UV-vis spectral change of bacteriorhodopsin sample (bacteriorhodopsin (BR); over the course of almost one year): no observable UV-vis spectral change
- stability of BR stored in the detergent (bacteriorhodopsin (BR)): remained completely stable
- hydrodynamic radius of the micelle [2]: 3.0-3.1 nm and 3.0 nm

Compound: CCC[C@@H](C)[C@H]1CC[C@H]2[C@@H]3[C@H](OCCO[C@@H]4OC(CO)[C@@H](O[C@H]5OC(CO)[C@@H](O)[C@H](O)C5O)[C@H](O)C4O)C[C@@H]4CCCC[C@]4(C)[C@H]3C[C@H](OCCO[C@@H]3OC(CO)[C@@H](O[C@H]4OC(CO)[C@@H](O)[C@H](O)C4O)[C@H](O)C3O)[C@]12C (stereo partly drawn) [Compound A2, 7α,12α-Di-((O-β-D-maltosyl)-2-hydroxyethoxy)-cholane]
- CMC ([1]; ANS fluorescence assay): 0.01%
- hydrodynamic radius of the micelle [2]: 2.7 nm

Compound: CCC[C@@H](C)[C@H]1CC[C@H]2[C@@H]3[C@H](OCCO[C@@H]4OC(CO)[C@@H](O[C@H]5OC(CO)[C@@H](O)[C@H](O)C5O)[C@H](O)C4O)C[C@@H]4C[C@H](O)CC[C@]4(C)[C@H]3C[C@H](OCCO[C@@H]3OC(CO)[C@@H](O[C@H]4OC(CO)[C@@H](O)[C@H](O)C4O)[C@H](O)C3O)[C@]12C (stereo partly drawn) [Compound B1, 3α-hydroxyl-7α,12α-Di-((O-β-D-maltosyl)-2-hydroxyethoxy)-cholane]
- CMC ([1]; ANS fluorescence assay): 0.02%
- hydrodynamic radius of the micelle [2]: 2.2 nm
- SAXS of MsbA prepared in the presence of the detergent (MsbA [3]): Favorable results

Compound: CCC[C@@H](C)[C@H]1CC[C@H]2[C@@H]3[C@H](OCCO[C@@H]4OC(CO)[C@@H](O)[C@H](O)C4O)C[C@@H]4C[C@H](O)CC[C@]4(C)[C@H]3C[C@H](OCCO[C@@H]3OC(CO)[C@@H](O)[C@H](O)C3O)[C@]12C (stereo partly drawn) [Compound B2, 3α-hydroxyl-7α,12α-Di-((O-D-glucosyl)-2-hydroxyethoxy)-cholane]
- CMC ([1]; ANS fluorescence assay): 0.013%

Compound: CCCCCCCCCCCCO[C@@H]1O[C@H](CO)[C@@H](O[C@H]2O[C@H](CO)[C@@H](O)[C@H](O)[C@H]2O)[C@H](O)[C@H]1O [DDM, dodecyl-β-D-maltoside, reference compound]
- crystallizability of cytochrome c oxidase ba3 (cytochrome c oxidase ba3): not crystallizable
- hydrodynamic radius of the micelle [2]: 3.3-3.4 nm

Compound: CCCCCCCCO[C@@H]1O[C@H](CO)[C@@H](O)[C@H](O)[C@H]1O [OG, octyl-β-D-glucoside, reference compound]
- CMC [4]: 0.53%
- stability of BR stored in the detergent (bacteriorhodopsin (BR)): gradually denatured

Compound: CCCCCCCCCCCO[C@@H]1O[C@H](CO)[C@@H](O[C@H]2O[C@H](CO)[C@@H](O)[C@H](O)[C@H]2O)[C@H](O)[C@H]1O [β-UDM, Undecyl-β-D-maltoside]
- detergent binding ratio (MsbA [5]): 219±13 mol/mol MsbA
- loss of ATPase activity of MsbA ([6]; RT, in 2 days): more than 70%
- ATPase activity of S. typhimurium MsbA, comparison of detergents ([6]; compared with β-UDM and 24 commercial detergents): highest ATPase activity among all 24 commercial detergents tested
- MsbA stability in the detergent (protein solution, ATPase activity) ([6]; followed for more than a week at RT (about 23° C.)): collapsed to form visible aggregates
- initial ATPase activity ([6]; freshly purified MsbA in the detergent, 37° C.): 1.19±0.03 μmol ATP·min^−1·mg^−1
